Experimental data reported in patent publication US11420958B2, “Aryl and heteroaryl substituted indole compounds” (BRISTOL-MYERS SQUIBB COMPANY, priority 2017, dated 2022).

Key:
Format in all cases: cell-based
human TLR8 = human TLR8 (Homo sapiens (Human), UniProt Q9NR97); assay: TLR8 inhibition reporter assay (HEK-Blue, SEAP); conditions: HEK-Blue cells overexpressing human TLR8, R848 15.9 μM stimulation
Summary of the method: (§1)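 Reporter cells, NF-κB/AP-1-driven SEAP; cmpd 0.05 nM–50 μM final, 30 min RT pre-treat; stim gardiquimod 7.5 μM (TLR7), R848 15.9 μM (TLR8), ODN2006 5 nM (TLR9); 22 h 37 °C; % inhibition of SEAP signal.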

human TLR9 = human TLR9 (Homo sapiens (Human), UniProt Q9NR96); assay: TLR9 inhibition reporter assay (HEK-Blue, SEAP); conditions: HEK-Blue cells overexpressing human TLR9, ODN2006 5 nM stimulation
Summary of the method: as §1

human TLR7 = human TLR7 (Homo sapiens (Human), UniProt Q9NYK1); assay: TLR7 inhibition reporter assay (HEK-Blue, SEAP); conditions: HEK-Blue cells overexpressing human TLR7, gardiquimod 7.5 μM stimulation
Summary of the method: as §1

Chain of human TLR9 (Q9NR96 26-1032): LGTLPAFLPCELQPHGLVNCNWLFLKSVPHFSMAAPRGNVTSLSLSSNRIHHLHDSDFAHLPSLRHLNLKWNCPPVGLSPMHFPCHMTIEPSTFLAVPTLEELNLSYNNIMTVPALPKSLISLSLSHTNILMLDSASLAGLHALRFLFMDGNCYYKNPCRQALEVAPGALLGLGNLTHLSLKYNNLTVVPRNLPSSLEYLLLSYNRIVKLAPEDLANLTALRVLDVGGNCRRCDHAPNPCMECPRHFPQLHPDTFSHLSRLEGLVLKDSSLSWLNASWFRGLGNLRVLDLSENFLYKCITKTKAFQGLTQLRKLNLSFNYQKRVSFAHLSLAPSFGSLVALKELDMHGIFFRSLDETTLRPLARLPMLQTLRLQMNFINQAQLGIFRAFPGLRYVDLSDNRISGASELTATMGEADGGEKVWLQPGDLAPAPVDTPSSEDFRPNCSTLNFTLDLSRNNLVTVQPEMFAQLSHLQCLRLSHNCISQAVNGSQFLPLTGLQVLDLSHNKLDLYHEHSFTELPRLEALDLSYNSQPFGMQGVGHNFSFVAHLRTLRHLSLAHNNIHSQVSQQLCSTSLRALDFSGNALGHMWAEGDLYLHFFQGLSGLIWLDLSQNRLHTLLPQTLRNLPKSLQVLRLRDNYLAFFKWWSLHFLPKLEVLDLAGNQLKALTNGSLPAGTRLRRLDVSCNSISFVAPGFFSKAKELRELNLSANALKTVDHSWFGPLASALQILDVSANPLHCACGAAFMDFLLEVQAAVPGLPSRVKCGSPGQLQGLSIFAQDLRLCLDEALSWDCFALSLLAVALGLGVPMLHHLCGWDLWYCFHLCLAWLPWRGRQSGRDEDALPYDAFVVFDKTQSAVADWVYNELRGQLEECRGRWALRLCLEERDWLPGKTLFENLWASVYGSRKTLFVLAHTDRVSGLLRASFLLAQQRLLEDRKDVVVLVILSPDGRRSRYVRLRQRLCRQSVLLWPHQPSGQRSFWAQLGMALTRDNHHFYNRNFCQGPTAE
Chain of human TLR7 (Q9NYK1 27-1049): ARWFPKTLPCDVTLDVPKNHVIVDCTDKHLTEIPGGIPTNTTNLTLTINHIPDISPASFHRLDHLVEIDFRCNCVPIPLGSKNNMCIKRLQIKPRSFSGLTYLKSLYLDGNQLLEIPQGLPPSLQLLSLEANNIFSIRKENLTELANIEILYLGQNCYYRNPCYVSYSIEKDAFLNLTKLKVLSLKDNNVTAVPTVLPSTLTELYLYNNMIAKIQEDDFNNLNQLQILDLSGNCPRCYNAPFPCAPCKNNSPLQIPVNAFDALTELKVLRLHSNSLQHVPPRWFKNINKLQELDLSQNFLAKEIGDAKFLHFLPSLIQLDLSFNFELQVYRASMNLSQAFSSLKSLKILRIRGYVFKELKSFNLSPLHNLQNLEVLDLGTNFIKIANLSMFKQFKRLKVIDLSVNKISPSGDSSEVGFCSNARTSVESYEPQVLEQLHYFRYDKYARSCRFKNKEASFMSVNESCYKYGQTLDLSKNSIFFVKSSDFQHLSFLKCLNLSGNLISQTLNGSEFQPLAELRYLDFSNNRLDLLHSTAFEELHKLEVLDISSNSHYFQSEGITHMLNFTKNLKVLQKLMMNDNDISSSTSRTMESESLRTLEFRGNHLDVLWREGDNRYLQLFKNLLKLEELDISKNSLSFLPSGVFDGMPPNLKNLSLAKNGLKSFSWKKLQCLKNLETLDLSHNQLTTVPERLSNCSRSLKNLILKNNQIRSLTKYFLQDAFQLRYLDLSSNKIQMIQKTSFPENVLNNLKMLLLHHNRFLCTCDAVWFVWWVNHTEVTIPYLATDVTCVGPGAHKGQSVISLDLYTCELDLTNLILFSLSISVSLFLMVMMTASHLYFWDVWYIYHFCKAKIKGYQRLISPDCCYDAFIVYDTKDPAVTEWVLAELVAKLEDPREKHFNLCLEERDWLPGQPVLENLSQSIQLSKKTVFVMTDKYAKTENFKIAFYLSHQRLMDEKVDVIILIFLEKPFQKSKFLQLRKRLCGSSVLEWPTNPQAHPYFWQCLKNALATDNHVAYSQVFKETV
Chain of human TLR8 (Q9NR97 27-1041): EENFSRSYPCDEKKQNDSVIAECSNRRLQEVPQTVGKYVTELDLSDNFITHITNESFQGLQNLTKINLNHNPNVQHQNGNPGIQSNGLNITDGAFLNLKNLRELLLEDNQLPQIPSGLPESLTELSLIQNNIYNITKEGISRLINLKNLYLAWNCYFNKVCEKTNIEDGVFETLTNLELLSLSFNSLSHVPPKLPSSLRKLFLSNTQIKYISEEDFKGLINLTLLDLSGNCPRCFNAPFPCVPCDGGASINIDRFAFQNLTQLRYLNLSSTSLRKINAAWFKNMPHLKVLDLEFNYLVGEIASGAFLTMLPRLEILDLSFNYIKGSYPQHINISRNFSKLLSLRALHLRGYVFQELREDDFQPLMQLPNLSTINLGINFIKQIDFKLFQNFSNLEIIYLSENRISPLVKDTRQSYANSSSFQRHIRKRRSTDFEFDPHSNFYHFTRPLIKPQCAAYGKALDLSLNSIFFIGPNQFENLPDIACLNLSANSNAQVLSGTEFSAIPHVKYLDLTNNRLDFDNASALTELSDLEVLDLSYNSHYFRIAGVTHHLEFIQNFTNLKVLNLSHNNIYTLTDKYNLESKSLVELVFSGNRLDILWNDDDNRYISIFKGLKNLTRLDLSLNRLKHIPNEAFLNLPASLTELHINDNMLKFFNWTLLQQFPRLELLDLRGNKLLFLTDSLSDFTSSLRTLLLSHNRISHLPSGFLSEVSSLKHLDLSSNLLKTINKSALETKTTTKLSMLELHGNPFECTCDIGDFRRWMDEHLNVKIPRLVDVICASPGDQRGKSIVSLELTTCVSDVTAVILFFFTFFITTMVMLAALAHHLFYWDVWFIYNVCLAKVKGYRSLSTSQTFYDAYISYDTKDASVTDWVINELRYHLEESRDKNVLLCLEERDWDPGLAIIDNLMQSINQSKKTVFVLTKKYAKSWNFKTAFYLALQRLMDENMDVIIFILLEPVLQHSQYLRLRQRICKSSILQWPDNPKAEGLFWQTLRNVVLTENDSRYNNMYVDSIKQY

Row | SMILES | IC50 (human TLR8) [nM] | IC50 (human TLR9) [nM] | IC50 (human TLR7) [nM]
1 | Cc1cc(-c2[nH]c3ccc(-c4ccc(N5CCNCC5)nc4)cc3c2C(C)C)cc(C)n1 [Example 257, 2-(2,6-dimethylpyridin-4-yl)-3-isopropyl-5-(6-(piperazin-1-yl)pyridin-3-yl)-1H-indole] | 1.7 | 151 | 1.7
2 | Cc1cc(-c2[nH]c3ccc(-c4ccnc(-c5cn[nH]c5)c4)cc3c2C(C)C)ccn1 [Example 258, 5-(2-(1H-pyrazol-4-yl)pyridin-4-yl)-3-isopropyl-2-(2-methylpyridin-4-yl)-1H-indole] | 4 | 12000 | 224
3 | Cc1cc(-c2[nH]c3ccc(-c4nnc(CC(C)N)o4)cc3c2C(C)C)ccn1 (stereo not drawn) [Example 259, 1-(5-(3-isopropyl-2-(2-methylpyridin-4-yl)-1H-indol-5-yl)-1,3,4-oxadiazol-2-yl)propan-2-amine] | 5.5 | 876 | 26
4 | Cc1cc(-c2[nH]c3ccc(-c4nnc(CCN5CCCCC5)o4)cc3c2C(C)C)ccn1 [Example 260, 2-(3-isopropyl-2-(2-methylpyridin-4-yl)-1H-indol-5-yl)-5-(2-(piperidin-1-yl)ethyl)-1,3,4-oxadiazole] | 2.2 | 1230 | 133
5 | Cc1cc(-c2[nH]c3ccc(-c4nnc([C@@H]5CCCN5)o4)cc3c2C(C)C)ccn1 [Example 261, (S)-2-(3-isopropyl-2-(2-methylpyridin-4-yl)-1H-indol-5-yl)-5-(pyrrolidin-2-yl)-1,3,4-oxadiazole] | 4.5 | 6280 | 162
6 | Cc1cc(-c2[nH]c3ccc(-c4nnc(CCc5cccnc5)o4)cc3c2C(C)C)ccn1 [Example 262, 2-(3-isopropyl-2-(2-methylpyridin-4-yl)-1H-indol-5-yl)-5-(2-(pyridin-3-yl)ethyl)-1,3,4-oxadiazole] | 60 | 5890 | 286
7 | Cc1cc(-c2[nH]c3ccc(-c4nnc(C(C)CN)o4)cc3c2C(C)C)ccn1 (stereo not drawn) [Example 263, 2-(5-(3-isopropyl-2-(2-methylpyridin-4-yl)-1H-indol-5-yl)-1,3,4-oxadiazol-2-yl)propan-1-amine] | 3.2 | 869 | 50
8 | Cc1cc(-c2[nH]c3ccc(-c4nnc(CCCCN)o4)cc3c2C(C)C)ccn1 [Example 264, 4-(5-(3-isopropyl-2-(2-methylpyridin-4-yl)-1H-indol-5-yl)-1,3,4-oxadiazol-2-yl)butan-1-amine] | 36 | 7270 | 251
9 | Cc1cc(-c2[nH]c3ccc(-c4nnc(CC(C)(C)N)o4)cc3c2C(C)C)ccn1 [Example 265, 1-(5-(3-isopropyl-2-(2-methylpyridin-4-yl)-1H-indol-5-yl)-1,3,4-oxadiazol-2-yl)-2-methylpropan-2-amine] | 3.3 | 561 | 21
10 | Cc1cc(-c2[nH]c3ccc(-c4nnc([C@@H]5CCCC[C@@H]5N)o4)cc3c2C(C)C)ccn1 [Example 266, (1S,2R)-2-(5-(3-isopropyl-2-(2-methylpyridin-4-yl)-1H-indol-5-yl)-1,3,4-oxadiazol-2-yl)cyclohexan-1-amine] | 0.5 | 781 | 38
11 | Cc1cc(-c2[nH]c3ccc(-c4nnc([C@@H]5CCC[C@@H]5N)o4)cc3c2C(C)C)ccn1 [Example 267, (1S,2R)-2-(5-(3-isopropyl-2-(2-methylpyridin-4-yl)-1H-indol-5-yl)-1,3,4-oxadiazol-2-yl)cyclopentan-1-amine] | 2.4 | 752 | 30
12 | Cc1cc(-c2[nH]c3ccc(-c4nnc([C@@H](N)C5CC5)o4)cc3c2C(C)C)ccn1 [Example 268, (S)-cyclopropyl(5-(3-isopropyl-2-(2-methylpyridin-4-yl)-1H-indol-5-yl)-1,3,4-oxadiazol-2-yl)methanamine] | 2.8 | 33800 | 214
